Measurements from ChEMBL document CHEMBL1201862, “PubChem BioAssay data set” (2004).
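48-hour exposure; five concentrations; linearly interpolated endpoints. GI50 marks 50% less growth.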 Calls of active or inactive are those of the source. Cut-off read from the data, not from the text of the source: active = GI50 up to about 1.1 µM and inactive = higher.

Columns and labels:
Assay in all cases: NCI-60 cell line screen, 48 h
SW-620 = test system: SW-620
SNB-75 = test system: SNB-75
UACC-62 = test system: UACC-62
SF-295 = test system: SF-295
UO-31 = test system: UO-31
SK-OV-3 = test system: SK-OV-3
CCRF-CEM = test system: CCRF-CEM
OVCAR-5 = test system: OVCAR-5
MDA-MB-435 = test system: MDA-MB-435
RPMI-8226 = test system: RPMI-8226
DU-145 = test system: DU-145
NCI-H23 = test system: NCI-H23
LOX IMVI = test system: LOX IMVI
SK-MEL-5 = test system: SK-MEL-5
MDA-MB-231 = test system: MDA-MB-231
PC-3 = test system: PC-3
HCT-15 = test system: HCT-15
NCI/ADR-RES = test system: NCI/ADR-RES
K562 = test system: K562
SNB-19 = test system: SNB-19
TK-10 = test system: TK-10
786-0 = test system: 786-0
Hs-578T = test system: Hs-578T
SF-268 = test system: SF-268
MOLT-4 = test system: MOLT-4
KM12 = test system: KM12
T47D = test system: T47D
SR = test system: SR
HOP-62 = test system: HOP-62
OVCAR-3 = test system: OVCAR-3
NCI-H460 = test system: NCI-H460
MDA-N = test system: MDA-N
U-251 = test system: U-251
NCI-H226 = test system: NCI-H226
ACHN = test system: ACHN
HCT-116 = test system: HCT-116
A549 = test system: A549
HCC 2998 = test system: HCC 2998
EKVX = test system: EKVX
COLO 205 = test system: COLO 205
RXF 393 = test system: RXF 393
NCI-H522 = test system: NCI-H522
OVCAR-4 = test system: OVCAR-4
IGROV-1 = test system: IGROV-1
SN12C = test system: SN12C
UACC-257 = test system: UACC-257
M14 = test system: M14
BT-549 = test system: BT-549
CAKI-1 = test system: CAKI-1
MCF7 = test system: MCF7
OVCAR-8 = test system: OVCAR-8
HL-60 = test system: HL-60
HT-29 = test system: HT-29
Malme-3M = test system: Malme-3M
SK-MEL-2 = test system: SK-MEL-2
A498 = test system: A498
HOP-92 = test system: HOP-92
SK-MEL-28 = test system: SK-MEL-28
SF-539 = test system: SF-539

C=C1C(C[C@@H]2O[C@H]3C[C@H]4O[C@@]5(C[C@@H]6O[C@]7(C[C@H](C)[C@@H]8O[C@@H]9CC(C(O)CO)O[C@@H]9C[C@@H]8O7)C[C@H](C)[C@@H]6O5)C[C@H]4O[C@H]3[C@H](C)[C@H]2O)O[C@@H](CC[C@@H]2O[C@@H](CC[C@@]34CC5O[C@H]6C(O[C@H]7CC[C@H](CC(=O)OC)O[C@@H]7[C@@H]6O3)[C@H]5O4)CC2=C)C[C@H]1C (some centres undefined)
GI50 (SW-620): < 0.0001 µM (active)
GI50 (SNB-75): 0.000154 µM (active)
GI50 (UACC-62): < 0.0001 µM (active)
GI50 (SF-295): < 0.0001 µM (active)
GI50 (UO-31): 0.000904 µM (active)
GI50 (SK-OV-3): 0.000243 µM (active)
GI50 (CCRF-CEM): < 0.0001 µM (active)
GI50 (OVCAR-5): 0.00142 µM (active)
GI50 (MDA-MB-435): < 0.0001 µM (active)
GI50 (RPMI-8226): < 0.0001 µM (active)
GI50 (DU-145): < 0.0001 µM (active)
GI50 (NCI-H23): < 0.0001 µM (active)
GI50 (LOX IMVI): < 0.0001 µM (active)
GI50 (SK-MEL-5): < 0.0001 µM (active)
GI50 (MDA-MB-231): 0.00632 µM (active)
GI50 (PC-3): < 0.0001 µM (active)
GI50 (HCT-15): 0.000258 µM
GI50 (NCI/ADR-RES): 0.00466 µM (active)
GI50 (K562): < 0.0001 µM (active)
GI50 (SNB-19): 0.000304 µM (active)
GI50 (TK-10): 0.0152 µM (active)
GI50 (786-0): < 0.0001 µM (active)
GI50 (Hs-578T): < 0.0001 µM (active)
GI50 (SF-268): 0.000184 µM (active)
GI50 (MOLT-4): 0.000146 µM (active)
GI50 (KM12): < 0.0001 µM (active)
GI50 (T47D): 0.01 µM (active)
GI50 (SR): < 0.0001 µM (active)
GI50 (HOP-62): 0.000396 µM (active)
GI50 (OVCAR-3): < 0.0001 µM (active)
GI50 (NCI-H460): < 0.0001 µM (active)
GI50 (MDA-N): < 0.0001 µM (active)
GI50 (U-251): < 0.0001 µM (active)
GI50 (NCI-H226): 0.000174 µM (active)
GI50 (ACHN): 0.000658 µM (active)
GI50 (HCT-116): < 0.0001 µM (active)
GI50 (A549): 0.000108 µM (active)
GI50 (HCC 2998): < 0.0001 µM (active)
GI50 (EKVX): 0.000405 µM (active)
GI50 (COLO 205): < 0.0001 µM (active)
GI50 (RXF 393): < 0.0001 µM (active)
GI50 (NCI-H522): < 0.0001 µM (active)
GI50 (OVCAR-4): 0.998 µM (active)
GI50 (IGROV-1): < 0.0001 µM (active)
GI50 (SN12C): 0.000211 µM (active)
GI50 (UACC-257): < 0.0001 µM (active)
GI50 (M14): 0.000124 µM (active)
GI50 (BT-549): < 0.0001 µM (active)
GI50 (CAKI-1): 0.000286 µM (active)
GI50 (MCF7): < 0.0001 µM (active)
GI50 (OVCAR-8): 0.000209 µM (active)
GI50 (HL-60): < 0.0001 µM (active)

Nc1ncnc2c1ccn2COC(CO)CO
GI50 (SW-620): > 100 µM (inactive)
GI50 (SNB-75): > 100 µM (inactive)
GI50 (UACC-62): 37.4 µM (inactive)
GI50 (SF-295): > 100 µM (inactive)
GI50 (HT-29): > 100 µM (inactive)
GI50 (UO-31): > 100 µM (inactive)
GI50 (SK-OV-3): > 100 µM (inactive)
GI50 (Malme-3M): > 100 µM (inactive)
GI50 (CCRF-CEM): > 100 µM (inactive)
GI50 (SK-MEL-2): > 100 µM (inactive)
GI50 (OVCAR-5): > 100 µM (inactive)
GI50 (MDA-MB-435): 62.8 µM (inactive)
GI50 (RPMI-8226): 97.1 µM (inactive)
GI50 (DU-145): > 100 µM (inactive)
GI50 (NCI-H23): > 100 µM (inactive)
GI50 (LOX IMVI): > 100 µM (inactive)
GI50 (SK-MEL-5): > 100 µM (inactive)
GI50 (MDA-MB-231): > 100 µM (inactive)
GI50 (A498): > 100 µM (inactive)
GI50 (PC-3): > 100 µM (inactive)
GI50 (HCT-15): > 100 µM
GI50 (NCI/ADR-RES): > 100 µM (inactive)
GI50 (K562): > 100 µM (inactive)
GI50 (HOP-92): > 100 µM (inactive)
GI50 (SNB-19): > 100 µM (inactive)
GI50 (TK-10): > 100 µM (inactive)
GI50 (786-0): > 100 µM (inactive)
GI50 (Hs-578T): > 100 µM (inactive)
GI50 (SF-268): > 100 µM (inactive)
GI50 (MOLT-4): 51.9 µM (inactive)
GI50 (KM12): > 100 µM (inactive)
GI50 (T47D): > 100 µM (inactive)
GI50 (HOP-62): > 100 µM (inactive)
GI50 (OVCAR-3): > 100 µM (inactive)
GI50 (NCI-H460): > 100 µM (inactive)
GI50 (MDA-N): > 100 µM (inactive)
GI50 (U-251): > 100 µM (inactive)
GI50 (NCI-H226): 46.2 µM (inactive)
GI50 (ACHN): > 100 µM (inactive)
GI50 (SK-MEL-28): > 100 µM (inactive)
GI50 (HCT-116): > 100 µM (inactive)
GI50 (A549): > 100 µM (inactive)
GI50 (HCC 2998): > 100 µM (inactive)
GI50 (EKVX): > 100 µM (inactive)
GI50 (RXF 393): 49.4 µM (inactive)
GI50 (NCI-H522): 54.7 µM (inactive)
GI50 (OVCAR-4): > 100 µM (inactive)
GI50 (IGROV-1): > 100 µM (inactive)
GI50 (SN12C): > 100 µM (inactive)
GI50 (UACC-257): > 100 µM (inactive)
GI50 (SF-539): > 100 µM (inactive)
GI50 (M14): 79.6 µM (inactive)
GI50 (BT-549): > 100 µM (inactive)
GI50 (CAKI-1): > 100 µM (inactive)
GI50 (MCF7): 92 µM (inactive)
GI50 (OVCAR-8): > 100 µM (inactive)
GI50 (HL-60): 90.6 µM (inactive)
